US8030494B2, “Optical recording material” (Adeka Corporation, priority 2006, dated 2011)

Experiment: Evaluation of light resistance (absorbance retention of spin-coated film after irradiation)
Format: physicochemical
Settings: film spin-coated from 1% by mass 2,2,3,3-tetrafluoropropanol solution on polycarbonate plate; 55000 lux light for 100 hours; at λmax before irradiation
Experimental: The compounds obtained in Preparation Examples 1 to 8 and comparative compound No. 2 were evaluated for light resistance as follows. Each of the compounds was dissolved in 2,2,3,3-tetrafluoropropanol to prepare a 1% by mass solution. The solution was applied to a 20 mm by 20 mm polycarbonate plate by spin coating at 2000 rpm for 60 seconds to prepare a specimen. The specimen was irradiated with 55000 lux light for 100 hours. The UV absorption spectra measured before and after the irradiation were compared to calculate an absorbance retention at the λmax of the UV absorption spectrum before the irradiation.

C[N+]1=C(/C=C/c2ccccc2)C(C)(Cc2ccccc2)c2c1ccc1ccccc21 (stereo not shown) [comparative compound No. 2]
Absorbance Retention (%): 0%
